Measurements as given in ChEMBL document CHEMBL3045592, “Studies of O,O-dimethyl α-(2,4-dichlorophenoxyacetoxy)ethylphosphonate (HW02) as a new herbicide. 1. Synthesis and herbicidal activity of HW02 and analogues as novel inhibitors of pyruvate dehydrogenase complex” (J Agric Food Chem, 2011).

What was measured:
Cucumis sativus [1] = test: Herbicidal activity against Cucumis sativus Jin 4 (cucumber) assessed as inhibition of root growth after 3 days; format: functional, organism-based; settings: Jin 4, 72 h
Digitaria sanguinalis [2] = test: Post-emergence herbicidal activity against Digitaria sanguinalis (hairy crabgrass) assessed as growth inhibition at 150 ai g/ha after 20 days by green house test; format: functional
Amaranthus spinosus [3] = test: Post-emergence herbicidal activity against Amaranthus spinosus assessed as growth inhibition at 150 ai g/ha after 20 days by green house test; format: functional
Amaranthus spinosus [4] = test: Pre-emergence herbicidal activity against Amaranthus spinosus assessed as growth inhibition at 450 ai g/ha after 20 days by green house test; format: functional
Echinochloa crus-galli [5] = test: Post-emergence herbicidal activity against Echinochloa crus-galli (barnyard grass) assessed as growth inhibition at 1500 ai g/ha after 20 days by green house test; format: functional
Setaria viridis [6] = test: Pre-emergence herbicidal activity against Setaria viridis (green foxtail) assessed as growth inhibition at 450 ai g/ha after 20 days by green house test; format: functional
Abutilon theophrasti [7] = test: Pre-emergence herbicidal activity against Abutilon theophrasti (velvetleaf) assessed as growth inhibition at 75 ai g/ha after 20 days by green house test; format: functional
Setaria viridis [8] = test: Pre-emergence herbicidal activity against Setaria viridis (green foxtail) assessed as growth inhibition at 75 ai g/ha after 20 days by green house test; format: functional
[9] = target: T1, Pyruvate dehydrogenase complex (Pisum sativum) (UniProt P52902+P52904); test: Inhibition of PDHc in Pisum sativum Zhongwan-2 (pea) shoot mitochondria assessed as decrease in rate of NADH formation using sodium pyruvate as substrate at 1000 microg/g preincubated for 25 min before substrate addition measured after 1 min by spectrophotometric assay; format: protein-complex assay; settings: Lathyrus oleraceus
Cucumis sativus [10] = test: Herbicidal activity against Cucumis sativus Jin 4 (cucumber) assessed as inhibition of stem growth after 3 days; format: functional, organism-based; settings: Jin 4, 72 h
[11] = target: T1, Pyruvate dehydrogenase complex (Pisum sativum); test: Inhibition of PDHc in Pisum sativum Zhongwan-2 (pea) shoot mitochondria assessed as decrease in rate of NADH formation using sodium pyruvate as substrate at 1 microg/g preincubated for 25 min before substrate addition measured after 1 min by spectrophotometric assay; format: protein-complex assay; settings: Lathyrus oleraceus
Brassica juncea = test: Post-emergence herbicidal activity against Brassica juncea assessed as growth inhibition at 450 ai g/ha after 20 days by green house test; format: functional
[12] = tested on: Brassica rapa subsp. oleifera; test: Pre-emergence herbicidal activity against Brassica rapa subsp. oleifera Si Yue Man assessed as growth inhibition at 1500 ai g/ha after 20 days by green house test; format: functional
Echinochloa crus-galli [13] = test: Post-emergence herbicidal activity against Echinochloa crus-galli (barnyard grass) assessed as growth inhibition at 450 ai g/ha after 20 days by green house test; format: functional
Amaranthus spinosus [14] = test: Post-emergence herbicidal activity against Amaranthus spinosus assessed as growth inhibition at 450 ai g/ha after 20 days by green house test; format: functional
Digitaria sanguinalis [15] = test: Post-emergence herbicidal activity against Digitaria sanguinalis (hairy crabgrass) assessed as growth inhibition at 1500 ai g/ha after 20 days by green house test; format: functional
[16] = target: T1, Pyruvate dehydrogenase complex (Pisum sativum); test: Inhibition of PDHc in Pisum sativum Zhongwan-2 (pea) shoot mitochondria assessed as decrease in rate of NADH formation using sodium pyruvate as substrate at 0.1 microg/g preincubated for 25 min before substrate addition measured after 1 min by spectrophotometric assay; format: protein-complex assay; settings: Lathyrus oleraceus
Chenopodium album = test: Post-emergence herbicidal activity against Chenopodium album assessed as growth inhibition at 75 ai g/ha after 20 days by green house test; format: functional
Digitaria sanguinalis [17] = test: Pre-emergence herbicidal activity against Digitaria sanguinalis (hairy crabgrass) assessed as growth inhibition at 75 ai g/ha after 20 days by green house test; format: functional
Setaria viridis [18] = test: Pre-emergence herbicidal activity against Setaria viridis (green foxtail) assessed as growth inhibition at 150 ai g/ha after 20 days by green house test; format: functional
Amaranthus spinosus [19] = test: Pre-emergence herbicidal activity against Amaranthus spinosus assessed as growth inhibition at 75 ai g/ha after 20 days by green house test; format: functional
Abutilon theophrasti [20] = test: Post-emergence herbicidal activity against Abutilon theophrasti (velvetleaf) assessed as growth inhibition at 450 ai g/ha after 20 days by green house test; format: functional
[21] = Toxicity against Zea mays Gao you 1 (maize) assessed as growth inhibition at 150 ai g/ha post-emergent application measured after 20 days by green house crop selectivity test; format: organism-based; settings: Gao you 1, zea mays, in vivo, read-out: GI
Echinochloa crus-galli [22] = test: Post-emergence herbicidal activity against Echinochloa crus-galli (barnyard grass) assessed as growth inhibition at 300 ai g/ha after 20 days by green house test; format: functional
[23] = Toxicity against Triticum aestivum Yang Mai 1 (wheat) assessed as growth inhibition at 600 ai g/ha post-emergent application measured after 20 days by green house crop selectivity test; format: organism-based; settings: Yang Mai 1, triticum aestivum, in vivo, read-out: GI
Medicago sativa = test: Post-emergence herbicidal activity against Medicago sativa (alfalfa) assessed as growth inhibition at 18.75 ai g/ha after 20 days by green house test; format: functional
Portulaca oleracea = test: Post-emergence herbicidal activity against Portulaca oleracea assessed as growth inhibition at 300 ai g/ha after 20 days by green house test; format: functional
Amaranthus retroflexus = test: Post-emergence herbicidal activity against Amaranthus retroflexus assessed as growth inhibition at 150 ai g/ha after 20 days by green house test; format: functional
Echinochloa crus-galli [24] = test: Post-emergence herbicidal activity against Echinochloa crus-galli (barnyard grass) assessed as growth inhibition at 75 ai g/ha after 20 days by green house test; format: functional
Xanthium strumarium = test: Post-emergence herbicidal activity against Xanthium strumarium (cocklebur) assessed as growth inhibition at 450 ai g/ha after 20 days by green house test; format: functional
Daucus carota [25] = test: Post-emergence herbicidal activity against Daucus carota (carrot) assessed as growth inhibition at 225 ai g/ha after 20 days by green house test; format: functional
Eclipta prostrata [26] = test: Post-emergence herbicidal activity against Eclipta prostrata assessed as growth inhibition at 300 ai g/ha after 20 days by green house test; format: functional
Daucus carota [27] = test: Post-emergence herbicidal activity against Daucus carota (carrot) assessed as growth inhibition at 300 ai g/ha after 20 days by green house test; format: functional
[28] = tested on: Brassica rapa subsp. oleifera; test: Post-emergence herbicidal activity against Brassica rapa subsp. oleifera Si Yue Man assessed as growth inhibition at 225 ai g/ha after 20 days by green house test; format: functional
Cardamine hirsuta = test: Post-emergence herbicidal activity against Cardamine hirsuta assessed as growth inhibition at 150 ai g/ha after 20 days by green house test; format: functional
Pisum sativum = test: Post-emergence herbicidal activity against Pisum sativum Zhongwan-2 (pea) assessed as growth inhibition at 450 ai g/ha after 20 days by green house test; settings: Lathyrus oleraceus
Eclipta prostrata [29] = test: Post-emergence herbicidal activity against Eclipta prostrata assessed as growth inhibition at 75 ai g/ha after 20 days by green house test; format: functional
[30] = Toxicity against Zea mays Gao you 1 (maize) assessed as growth inhibition at 300 ai g/ha post-emergent application measured after 20 days by green house crop selectivity test; format: organism-based; settings: Gao you 1, zea mays, in vivo, read-out: GI

SMILES | growth inhibition (GI) (Digitaria sanguinalis [2]) [%] | growth inhibition (GI) (Amaranthus spinosus [3]) [%] | growth inhibition (GI) (Amaranthus spinosus [4]) [%] | growth inhibition (GI) (Echinochloa crus-galli [5]) | growth inhibition (GI) (Setaria viridis [6]) [%] | growth inhibition (GI) (Abutilon theophrasti [7]) [%] | growth inhibition (GI) (Setaria viridis [8]) [%] | inhibition [9] [%] | inhibition [11] [%] | growth inhibition (GI) (Brassica juncea) [%] | growth inhibition (GI) [12] [%] | growth inhibition (GI) (Echinochloa crus-galli [13]) [%] | growth inhibition (GI) (Amaranthus spinosus [14]) [%] | growth inhibition (GI) (Digitaria sanguinalis [15]) | inhibition [16] [%] | growth inhibition (GI) (Chenopodium album) [%] | growth inhibition (GI) (Digitaria sanguinalis [17]) [%] | growth inhibition (GI) (Setaria viridis [18]) [%] | growth inhibition (GI) (Amaranthus spinosus [19]) [%] | growth inhibition (GI) (Abutilon theophrasti [20]) [%] | also measured
O=C(O)COc1ccc(Cl)cc1Cl [2,4-DICHLOROPHENOXYACETIC ACID] | 0 | 92.5 | 0 | 50% | 67.5 | 0 | 0 | 48.1 | 12.9 | 100 | 90 | 35 | 92.5 | 50% | 8.8 | 72.5 | 0 | 5.5 | 0 | 100 | IC50 (Cucumis sativus [1]): 0.228 µM; IC50 (Cucumis sativus [10]): 10.1 µM
COP(=O)(OC)C(C)OC(=O)COc1ccc(Cl)cc1Cl (stereo unspecified) [CLACYFOS] | 0 | 100 | 0 | 50% | 35 | 0 | 0 | 73.8 | 44.3 | 100 | 90 | 35 | 100 | 50% | 31.1 | 92.5 | 0 | 0 | 0 | 100 | inhibition at 480 h [21]: 0%; growth inhibition (GI) (Echinochloa crus-galli [22]): 20%; inhibition at 480 h [23]: 0%; growth inhibition (GI) (Medicago sativa): 60%; IC50 (Cucumis sativus [1]): 0.0025 µM; growth inhibition (GI) (Portulaca oleracea): 95%; growth inhibition (GI) (Amaranthus retroflexus): 96%; growth inhibition (GI) (Echinochloa crus-galli [24]): 0%; growth inhibition (GI) (Xanthium strumarium): 100%; growth inhibition (GI) (Daucus carota [25]): 97%; growth inhibition (GI) (Eclipta prostrata [26]): 100%; growth inhibition (GI) (Daucus carota [27]): 100%; growth inhibition (GI) [28]: 100%; IC50 (Cucumis sativus [10]): 7.56 µM; growth inhibition (GI) (Cardamine hirsuta): 92.5%; growth inhibition (GI) (Pisum sativum): 97.5%; growth inhibition (GI) (Eclipta prostrata [29]): 82.5%; inhibition at 480 h [30]: 0%
COP(=O)(COC(=O)COc1cccc(C(F)(F)F)c1)OC | 0 | 0 | 0 | <=50% | 35 | 0 | 0 | 60.7 | 22.9 | 82.5 | 75 | 0 | 57.5 | <=50% | 11.5 | 32.5 | 0 | 0 | 0 | 87.5 | growth inhibition (GI) (Pisum sativum): 10%
